For one assay, the system named is T47D. Put plainly: MTT cytotoxicity assay. It counts as cell-based. Particulars: Homo sapiens, 24 h, means ± SD of quadruplicate determinations. The method, then:
(§1) Cells were seeded into 96-well plate and pre-cultured for 24 h, then treated with Eth for 24. Cell cytotoxicity was determined by MTT assay. The absorbance was measured at 490 nm by automated microplated reader (BioTek Instruments, Inc., Winooski, VT, USA), and the cell death rate was calculated as followed: inhibition rate (%) = (average A490 of the control group − average A490 of the experimental group)/(average A490 of the control group − average A490 of the blank group) × 100%. Cell viability was estimated by trypan blue dye exclusion.
(Tetrazolium dyes change colour on reduction, which living cells bring about.)

Assay [1] deals with LC3-II and Beclin-1 in MCF-7, MDA-MB-231, and MDA-MB-436 cells. In words: Western blot of autophagy markers. Particulars: dose- and time-dependent. Format: cell-based, human. The method, then:
Cells were lysed in radioimmunoprecipitation assay buffer containing 50 mM Tris, pH 8.0, 150 mM NaCl, 0.1% SDS, 0.5% sodium deoxycholate, 1% NP-40, 1 mM DTT, 1 mM NaF, 1 mM sodium orthovanadate, 1 mM phenylmethylsulfonyl fluoride (PMSF; Sigma-Aldrich; Merck KGaA), and 1% protease inhibitors cocktail (EMD Millipore, Billerica, MA, USA). Protein concentration was determined using the Bradford method. Equal amounts of sample (25 µg) were separated by SDS-PAGE (8–12% gels). Electrophoresed proteins were then transferred onto polyvinylidene fluoride membranes (EMD Millipore, Billerica, MA, USA). The membranes were blocked with 5% skimmed milk in Tris-buffered saline at room temperature for 1 h. Following blocking, membranes were incubated overnight at 4°C with primary antibodies and then rinsed with Tris-buffered saline with Tween 20. […]
Figure 2 Eth induces autophagy in BC cells. […] (C): MCF-7, MDA-MB-231, or MDA-MB-436 cells transfected with pQCXIP-GFP-LC3 plasmid were treated with increasing concentrations of Eth for 24 h, and assessed by immunoﬂuorescence analyses. […] (D): MDA-MB-231 or MDA-MB-436 cells transfected with pQCXIP-GFP-LC3 plasmid were treated with Eth (2.0 µM) and/or 3-MA (1 mM) for 24 h, and assessed by immunoﬂuorescence analyses. […] (F): MCF-7, MDA-MB-231, or MDA-MB-436 cells were treated with Eth (3.5 µM, 3.0 µM, or 3.0 µM) and/or 3-MA (1 mM) for 24 h and analyzed by MTT assay. […]
Background: A western blot detects proteins with antibodies after separation by electrophoresis.

The test system of assay [2] is MCF-7, MDA-MB-231, and MDA-MB-436 cells. In words: Trypan blue exclusion assay. It counts as cell-based, human. Particulars: dose- and time-dependent. As to the method:
as §1

Structures are written as SMILES.

As for `CCOC1c2c(ccc3c2OCO3)-c2ccc3cc4c(cc3c2N1C)OCO4` (stereo not drawn) [Eth, Ethoxysanguinarine], 9.15 ± 1.83 µM corresponded to half-maximal inhibition with T47D (IC50). Besides, the “accumulation of LC3-II and Beclin-1” value in assay [1] was “induced the accumulation of LC3-II and Beclin-1”. Further, the viable cells entry in assay [2] is on record as “rapidly reduced viable”.

The term IC50 denotes the midpoint of a concentration-inhibition curve.
